From US20080038768A1, “Assay for ubiquitin mediated proteolysis” (priority 2006, published 2008)

Experiments:
[1] = test system: USP-2 and UCH-L3; assay: Downscaling: compatibility of the deubiquitinase assay with HBC and DMSO; type: biochemical, human
Experimental: One important factor which has to be tested during downscaling of the assay to the […] (2080 well nanoplates) is the assay's compatibility with hydroxy beta cyclodextrin (HBC) and DMSO. Nanocarriers are coated with HBC in order facilitate re-solubilization of dried test compounds (‘dry screening’) and to reduce adsorption of assay components to the carrier. If HBC interferes with the assay, pre-coated plates can not be used and ‘wet screening’, utilizing compounds dissolved in DMSO, has to be performed. […] Even DMSO concentrations of up to 5% are found to be compatible with the screen. […] These findings support a ‘wet screening’ format for these target family.

[2] = test system: USP-2 and UCH-L3; conditions: in absence of reducing agent; cited from earlier work
[3] = test system: USP-2 and UCH-L3; assay: Inhibition of the deubiquitinases (titration of inhibitor, fluorescence polarization assay); type: biochemical, human; conditions: in presence of 5 mM DTT
Experimental: Measurements of polarization and lifetime are performed on the research reader of Evotec OAI (see below). To perform the test, the de-ubiquitinating enzyme is first put into the well and the addition of the substrate triggered the start of the reaction. The enzymatic reaction is stopped by shifting the pH from 7.5 to 5 with the addition of Stop buffer (end concentration of 30 mM malonic acid pH 4.5—see TABLE 1). With this procedure the read-out could be kept stable for several hours.
Cysteine proteases, such as USP-2 and UCH-L3, are sensitive to covalent modification of the active site cystein. […] Ubiquitin aldehyde is a known inhibitor for both enzymes, USP-2 and UCH-L3. […] Using this molecule we analyzed whether addition of DTT can be utilized to mask the activity of covalent active site inhibitors during the screen. When titrating Ubiquitin aldehyde in presence of 5 mM DTT an IC50 value of 100 nM was found.

C[S+](C)[O-] [DMSO]
Concentration compatible with the screen [1]: up to 5% | Interference with the reaction ([1]; increasing concentrations added to the assay): only a minimal interference

Ubiquitin aldehyde
Potency [2]: pM activity range | IC50 [3]: 0.1 µM

hydroxy beta cyclodextrin [HBC]
Effect on enzymatic activity ([1]; HBC added to the assay): a reduction of the enzymatic activity was observed
